Measurements: BindingDB's records for doi:10.1021/acs.jmedchem.8b00890 (Beijing Institute of Pharmacology and Toxicology, 2018)
pEC50: −log10 of the molar value. Where a SMILES comes first, the peptide text is derived from it. [ ]: non-standard residue; d: D form. The star is where a group is joined. Palmitoyl = CCCCCCCCCCCCCCCC(=O)*; βAla = NCCC(=O)O

Tests used:
[1] = Inhibition of Ebola virus Sudan envelope glycoprotein-mediated cell entry in human HuH7 cells treated with 30 mins pre-treated pseudovirus/compopund mixture and measured after 72 hrs by luciferase reporter assay
[2] = Inhibition of HIV1 envelope glycoprotein-mediated cell-cell fusion between HL2/3 cells stably expressing HIV Gag, Env, Tat, Rev and Nef proteins and human TZM-bl cells stably expressing high CD4 and CCR5 incubated for 6 to 8 hrs by luciferase reporter assay

Compound CCCCCCCCCCCCCCCC(=O)NCCCC[C@H](NC(=O)CCNC(=O)[C@H](CCCCN)NC(=O)[C@H](CCCCN)NC(=O)[C@H](CCC(N)=O)NC(=O)[C@@H](NC(=O)[C@H](CCC(=O)O)NC(=O)[C@H](CCC(=O)O)NC(=O)[C@@H](NC(=O)[C@H](CCCCN)NC(=O)[C@H](CCCCN)NC(=O)[C@H](CCC(N)=O)NC(=O)[C@@H](NC(=O)[C@H](CCC(=O)O)NC(=O)[C@H](CCC(=O)O)NC(=O)[C@@H](NC(=O)[C@H](CCCCN)NC(=O)[C@H](CCCCN)NC(=O)[C@H](CCC(N)=O)NC(=O)[C@@H](NC(=O)[C@H](CCC(=O)O)NC(=O)[C@H](CCC(=O)O)NC(=O)[C@@H](NC(=O)[C@H](CCCCN)NC(=O)[C@H](CCCCN)NC(=O)[C@H](CCC(N)=O)NC(=O)[C@@H](NC(=O)[C@H](CCC(=O)O)NC(=O)[C@H](CCC(=O)O)NC(=O)[C@@H](NC(=O)[C@H](CCCCN)NC(=O)[C@H](CCCCN)NC(=O)[C@H](CCC(N)=O)NC(=O)[C@@H](NC(=O)[C@H](CCC(=O)O)NC(=O)[C@H](CCC(=O)O)NC(=O)[C@@H](NC(C)=O)[C@@H](C)CC)[C@@H](C)CC)[C@@H](C)CC)[C@@H](C)CC)[C@@H](C)CC)[C@@H](C)CC)[C@@H](C)CC)[C@@H](C)CC)[C@@H](C)CC)[C@@H](C)CC)C(N)=O (Ac-IEEIQKKIEEIQKKIEEIQKKIEEIQKKIEEIQKK[βAla]K(Palmitoyl)-NH2) has a pEC50 [1] of 5.99 and a pEC50 [2] of 5.44.
